Measurements: patent US20120165339A1, “CYCLOPROPANE DERIVATIVES” (EISAI R&D MANAGEMENT CO., LTD., priority 2010, published 2012)
Where two headings read alike, the source gives them in different places.

Experiments:
OX1 [1] = target: T1, OX1 (Homo sapiens, UniProt O43613); assay: Orexin-receptor binding ability, [125I]-OX-A, CHO cell membranes expressing OX1; parameters: expressed in transfected cells; host or cells: CHO cells (membrane preparation); settings: membranes of recombinant CHO cells, 0.2 nM [125I]-OX-A tracer; read-out: OX1 (IC50)
T1 sequence (O43613 1-425): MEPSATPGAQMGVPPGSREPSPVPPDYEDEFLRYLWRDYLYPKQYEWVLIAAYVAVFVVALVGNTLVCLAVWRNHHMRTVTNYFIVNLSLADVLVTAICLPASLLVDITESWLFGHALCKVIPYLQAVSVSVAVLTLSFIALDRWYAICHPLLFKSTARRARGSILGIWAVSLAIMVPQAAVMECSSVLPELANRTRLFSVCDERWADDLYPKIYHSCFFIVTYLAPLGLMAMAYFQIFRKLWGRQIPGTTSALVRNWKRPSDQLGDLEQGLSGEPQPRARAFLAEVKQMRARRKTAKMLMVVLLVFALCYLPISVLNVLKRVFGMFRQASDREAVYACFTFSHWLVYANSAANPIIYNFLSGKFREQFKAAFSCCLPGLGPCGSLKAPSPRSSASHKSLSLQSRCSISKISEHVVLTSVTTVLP
Procedure: (§1) The assay was carried out using a 96-well Wheat Germ Agglutinin Flash Plate (PerkinElmer). The volume in a single assay well was 100 ul, and the composition of the reaction solution was as follows:
(§2) 25 mM HEPES (pH 7.5), 1 mM CaCl2, 4.5 mM MgCl2, 0.5% BSA (bovine serum albumin), 0.1% sodium azide, 0.05% Tween-20, and 0.2% DMSO.
Cell membranes were prepared from recombinant CHO cells that expressed OX2 or OX1. The cell membranes were used in an amount of 5 μg protein/assay. […] Finally, the radioactivity of each well was measured using a scintillation counter (TopCount, PerkinElmer). The obtained results are shown in terms of IC50 values (nM) in the following table.

OX2 [2] = target: T2, OX2 (Homo sapiens, UniProt O43614); assay: Orexin-receptor binding ability, [125I]-OX-A, CHO cell membranes expressing OX2; parameters: expressed in transfected cells; host or cells: CHO cells (membrane preparation)
T2 sequence (O43614 1-444): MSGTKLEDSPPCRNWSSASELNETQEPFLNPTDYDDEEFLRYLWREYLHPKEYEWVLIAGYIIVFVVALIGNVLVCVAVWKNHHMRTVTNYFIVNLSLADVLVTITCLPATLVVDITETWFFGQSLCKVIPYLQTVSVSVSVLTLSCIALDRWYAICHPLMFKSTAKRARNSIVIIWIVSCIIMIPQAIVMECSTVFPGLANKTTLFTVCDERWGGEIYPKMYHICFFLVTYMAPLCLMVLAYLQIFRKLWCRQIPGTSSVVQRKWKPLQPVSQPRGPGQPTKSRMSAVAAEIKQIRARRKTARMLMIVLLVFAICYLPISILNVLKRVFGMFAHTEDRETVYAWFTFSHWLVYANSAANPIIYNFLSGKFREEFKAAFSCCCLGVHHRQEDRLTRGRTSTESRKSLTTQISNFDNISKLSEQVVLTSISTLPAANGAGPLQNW
Procedure: as §1, §2
Cell membranes were prepared from recombinant CHO cells that expressed OX2 or OX1. The cell membranes were used in an amount of 5 μg protein/assay. Test compound in various concentrations, and 0.2 nM [^125I]-OX-A as tracer were added to the cell membranes, and then allowed to react at room temperature for 30 minutes. After completion of the reaction, the reaction solution as a whole was discarded, and the wells were then washed once with 200 ul of wash buffer (25 mM HEPES (pH 7.5), 1 mM CaCl2, 5 mM MgCl2, 0.5% BSA, 0.1% sodium azide, 0.05% Tween-20, and 525 mM sodium chloride). Finally, the radioactivity of each well was measured using a scintillation counter (TopCount, PerkinElmer). The obtained results are shown in terms of IC50 values (nM) in the following table.

OX1 [3] = target: T1, OX1; assay: Antagonism PLAP reporter assay, HEK-293 cells expressing human OX1; format: cell-based; parameters: expressed in transfected cells; host or cells: HEK-293 cell line, expression vector pBabeCLIH; settings: HEK-293, 1 nM human OX-A; IC50 converted to Ki by Cheng-Prusoff equation
Procedure: (§3) The antagonistic function of the compound of the present invention to prevent the activation of OX2 and OX1 by orexin-A (OX-A), which is a natural peptide agonist, was measured using a cell-based reporter assay. A HEK-293 cell line expressing genetically recombinant human OX2 (accession No. NM_001526.3) or a HEK-293 cell line expressing genetically recombinant human OX1 (accession No. NM_001525.2), which had pBabeCLIH as expression vector, was used. The cells were plated at a density of 10,000 cells/well onto a non-coated 96-well plate in Dulbecco's modified Eagle medium (Sigma Cat No. D6046: 10% v/v heat-inactivated fetal bovine serum was contained). The cells were cultured at 37° C. overnight, so that they could adhere to the plate. On the following day, cells were incubated with a compound of the present invention dissolved in Dulbecco's modified Eagle medium (Sigma Cat No. A8806: 0.1% w/v bovine serum albumin was contained), and added to the cell plate to reach a final concentration of 0.1% dimethyl sulfoxide.
(§4) The thus obtained mixture was incubated at room temperature for 1 hour. Thereafter, human OX-A and forskolin were dissolved in the same medium as described above, which contained fetal bovine serum albumin, and the medium was then added to the cells, resulting in a final concentration of 300 nM forskolin. Subsequently, the cells were cultured at 37° C. for approximately 18 to 24 hours. During the culture, as a result of activation of the orexin receptor and subsequent dose-dependent increase in intracellular calcium concentration, a reporter enzyme, placental alkaline phosphatase (PLAP), was expressed under the control of a CRE x4+VIP promoter in a pBabeCLcre4vPdNN vector and secreted into the culture medium supernatant. On the following day, reporter enzyme activity was detected by mixing 5 ul of the culture medium supernatant with 20 ul of detection buffer (containing 1.34 g/L sodium bicarbonate, 1.27 g/L sodium carbonate and 0.2 g/L magnesium sulfate heptahydrate in water) and 25 ul of Lumi-Phos530 reagent (Wako Pure Chemical Industries Ltd.), followed by incubating the obtained mixture light-protected at room temperature for 2 hours, before performing luminescence measurement (ARVO Reader, PerkinElmer). The Kd value of human OX-A with respect to each receptor was measured by titration from 0 to 300 nM. Then, the IC50 value of the compound of the present invention with respect to the activity of 1 nM human OX-A was converted into a Ki value (nM) using the Cheng-Prusoff equation.

OX2 [4] = target: T2, OX2; assay: Antagonism PLAP reporter assay, HEK-293 cells expressing human OX2; format: cell-based; parameters: expressed in transfected cells; host or cells: HEK-293 cell line, expression vector pBabeCLIH; settings: HEK-293, 1 nM human OX-A; IC50 converted to Ki by Cheng-Prusoff equation
Procedure: as §3, §4

[5] = membranes of recombinant CHO cells, 0.2 nM [125I]-OX-A tracer, read-out: OX2 (IC50)

Row | IC50 (OX1 [1]) [µM] | IC50 (OX2 [2]; [5]) [µM] | Ki (OX1 [3]) [µM] | Ki (OX2 [4]) [µM] | Structure (SMILES) | IC50 (OX2 [2]) [µM]
1 | 2.04 | 0.047 | 1.9 | 0.122 | COc1ccc(OCC2(c3ccccc3)CC2C(=O)Nc2ccccc2-c2nnc[nH]2)cc1OC (stereo not drawn) [Example 35, N-[2-(1H-1,2,4-triazol-3-yl)phenyl]-2-[(3,4-dimethoxyphenyl)oxymethyl]-2-phenylcyclopropanecarboxamide] | 
2 | 0.283 | 0.022 | 0.699 | 0.043 | COc1ccc(OCC2(c3ccccc3)CC2C(=O)Nc2cc(C)ccn2)cc1OC (stereo not drawn) [Example 36, N-(4-methylpyridin-2-yl)-2-[(3,4-dimethoxyphenyl)oxymethyl]-2-phenylcyclopropanecarboxamide] | 
3 | 0.403 | 0.018 | 0.593 | 0.014 | COc1ccc(OCC2(c3ccccc3)CC2C(=O)Nc2cccc(C)n2)cc1OC (stereo not drawn) [Example 37, N-(6-methylpyridin-2-yl)-2-[(3,4-dimethoxyphenyl)oxymethyl]-2-phenylcyclopropanecarboxamide] | 
4 | 1.05 | 0.036 | 0.752 | 0.0515 | COc1ccc(OCC2(c3ccccc3)CC2C(=O)Nc2cc(C)ns2)cc1OC (stereo not drawn) [Example 40, N-(3-methylisothiazol-5-yl)-2-[(3,4-dimethoxyphenyl)oxymethyl]-2-phenylcyclopropanecarboxamide] | 
5 | 0.374 | 0.035 | 0.297 | 0.0248 | COc1ccc(OC[C@@]2(c3ccccc3)C[C@H]2C(=O)Nc2ccccn2)cc1OC [Example 41, (1R,2S)—N-(pyridin-2-yl)-2-[(3,4-dimethoxyphenyl)oxymethyl]-2-phenylcyclopropanecarboxamide] | 
6 | 0.061 | 0.003 | 0.0375 | 0.0008 | CCn1cc(OCC2(c3ccccc3)CC2C(=O)Nc2ccc(Cl)cn2)ccc1=O (stereo not drawn) [Example 54, N-(5-chloropyridin-2-yl)-2-[(1-ethyl-6-oxo-1,6-dihydropyridin-3-yl)oxymethyl]-2-phenylcyclopropanecarboxamide] | 
7 | 0.675 | 0.033 | > 0.467 | 0.0436 | CCn1cc(OCC2(c3ccccc3)CC2C(=O)Nc2ccc(C#N)cn2)ccc1=O (stereo not drawn) [Example 55] | 
8 | 0.483 | 0.046 | > 0.467 | 0.0317 | CCn1nc(C)cc1OCC1(c2ccccc2)CC1C(=O)Nc1ccc(Cl)cn1 (stereo not drawn) [Example 57] | 
9 | 0.467 | 0.045 | > 0.467 | 0.0209 | CCn1nc(C)cc1OCC1(c2ccccc2)CC1C(=O)Nc1ccc(F)cn1 (stereo not drawn) [Example 58] | 
10 | 0.52 | 0.07 | 0.275 | 0.0329 | Cc1noc2cc(OCC3(c4ccccc4)CC3C(=O)Nc3ccc(C#N)cn3)ccc12 (stereo not drawn) [Example 61] | 
11 | 0.044 | 0.061 | 0.481 | 0.0302 | Cc1ccc(OCC2(c3ccccc3)CC2C(=O)Nc2ccc(Cl)cn2)c(C)n1 (stereo not drawn) [Example 62] | 
12 | 0.359 | 0.03 | > 0.467 | 0.0307 | CCn1nc(C)c(Cl)c1OCC1(c2ccccc2)CC1C(=O)Nc1ccc(F)cn1 (stereo not drawn) [Example 74] | 
13 | 0.477 | 0.026 | > 0.816 | 0.0308 | CCn1nc(C)c(Cl)c1OCC1(c2ccccc2)CC1C(=O)Nc1ccc(Cl)cn1 (stereo not drawn) [Example 75] | 
14 | 0.163 | 0.033 | > 0.467 | 0.078 | CCn1cc(OCC2(c3ccccc3)CC2C(=O)Nc2ccc(Cl)cn2)cn1 (stereo not drawn) [Example 81] | 
15 | 0.632 | 0.043 | > 0.816 | 0.154 | COc1ccc(CCC2(c3ccccc3)CC2C(=O)Nc2ccccn2)cc1OC (stereo not drawn) [Example 99, N-(pyridin-2-yl)-2-[2-(3,4-dimethoxyphenyl)ethyl]-2-phenylcyclopropanecarboxamide] | 
16 | 0.058 | 0.009 | 0.0475 | 0.0052 | CCc1nc(C)c(CC[C@@]2(c3ccccc3)C[C@H]2C(=O)Nc2ccc(C#N)cn2)s1 [Example 100, (1R,2R)—N-(5-cyanopyridin-2-yl)-2-[2-(2-ethyl-4-methyl-1,3-thiazol-5-yl)ethyl]-2-phenylcyclopropanecarboxamide] | 
17 | 0.944 | 0.049 | > 0.467 | 0.0627 | CCc1nc(Cl)cn1CCC1(c2ccccc2)CC1C(=O)Nc1ccc(F)cn1 (stereo not drawn) [Example 113] | 
18 | 0.868 | 0.049 | > 0.467 | 0.21 | CCc1nc(Cl)cn1CCC1(c2ccccc2)CC1C(=O)Nc1ccc(C#N)cn1 (stereo not drawn) [Example 114] | 

Row | Structure (SMILES) | IC50 (OX1 [1]) [µM] | IC50 (OX2 [2]; [5]) [µM] | Ki (OX1 [3]) [µM] | Ki (OX2 [4]) [µM] | IC50 (OX2 [2]) [µM]
19 | COc1cc(F)c(OCC2(c3ccccc3)CC2C(=O)Nc2ccccn2)cc1OC (stereo not drawn) [Example 78] | 0.212 |  | 0.342 | 0.0192 | 0.02
20 | CCn1cc(OCC2(c3ccccc3)CC2C(=O)Nc2ccc(F)cn2)c(C)n1 (stereo not drawn) [Example 79, N-(5-fluoropyridin-2-yl)-2-[(1-ethyl-3-methyl-1H-pyrazol-4-yl)oxymethyl]-2-phenylcyclopropanecarboxamide] | 0.213 | 0.054 | 0.275 | 0.0105 | 
21 | CCn1cc(OCC2(c3ccccc3)CC2C(=O)Nc2ccc(C#N)cn2)cn1 (stereo not drawn) [Example 80] | 0.359 | 0.054 | > 0.467 | 0.19 | 
